Reference: patent US5252478A, “Thermostable mutants of neutral protease and means for their preparation” (Eniricerche S.p.A., priority 1990, dated 1993)
Residues, ends and D or L forms follow the SMILES beside them. *: point of attachment. Cbz = O=C(OCc1ccccc1)*

Tests used:
Test in all cases: Kinetic parameters on synthetic peptide substrates (HPLC of hydrolysis products)
Assay type in all cases: biochemical
[1] = target: T1, B.subtilis neutral protease, wild type (PN w.t.) (Bacillus subtilis, UniProt P68736); parameters: unit not given beside the values; conditions: 37° C., 25 mM Tris-HCl, pH 7.0, 2.5 mM calcium acetate
T1 construct: made in house; host or cells: B. subtilis SMS 108 carrying pSM 127 (NRRL B-15900)
T1 sequence (P68736 222-521): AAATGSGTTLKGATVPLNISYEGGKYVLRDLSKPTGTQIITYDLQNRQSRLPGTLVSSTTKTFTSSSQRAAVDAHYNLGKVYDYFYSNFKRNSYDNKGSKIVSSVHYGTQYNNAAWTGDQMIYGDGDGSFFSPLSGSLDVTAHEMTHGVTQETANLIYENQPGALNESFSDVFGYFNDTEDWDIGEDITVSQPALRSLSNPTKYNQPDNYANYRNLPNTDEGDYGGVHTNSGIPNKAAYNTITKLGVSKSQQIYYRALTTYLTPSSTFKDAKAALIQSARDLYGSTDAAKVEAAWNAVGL
Procedure: (§1) The kinetic parameters Km and Kcat of wild-type neutral protease and of the three mutants were determined on Z-Phe-Leu-Ala, Z-Ala-Leu-Ala, Z-Gly-Leu-Ala and Z-Val-Leu-Ala synthetic peptide substrates (Bachem, Bubendorf, CH).
(§2) The hydrolysis reactions were carried out at 37° C. in 0.6 ml of a solution containing 25 mM Tris-HCl, pH 7.0, and 2.5 mM calcium acetate, with the use of different concentrations of the substrate (from 0.2 to 20.0 mM) and of the enzyme (from 0.04 to 5 ug/ml).
(§3) 100 μl portions were withdrawn from the reaction mixtures at various time intervals, and 100 μl of a solution of H2 O:CH3 CN:H3 PO4 in a volumetric ratio of 64:34:1 were added and the mixture centrifuged at 14,000 rpm for 5 minutes.
(§4) 20 μl of the supernatant liquid thus obtained were then loaded into a VYDAC® 218 TP S415 HPLC column (4.6×150 mm, 10 μm particles) and the hydrolysis products (Z-Phe, Z-Ala, Z-Val and Z-Gly) were separated by isocratic elution at a flow rate of 1.5 ml/minute with the use of solutions A (0.05% H3 PO4, v/v) and B (H2 O:CH3 CN:H3 PO4, 4.95:95.0:0.05 v/v) in ratios which varied according to the substrate used.
(§5) The reaction products were measured as their absorbance at 220 nm and quantised by the integration of the elution peaks with the use of the System Gold program (Beckman).
(§6) Initial velocities (vi) and maximum velocities (Vmax) Km and Kcat were then found for each of the substrates with the use of the Michaelis-Manten equation [formula]

[2] = target: T2, B.subtilis neutral protease double mutant 147/189 (Gly 147 → Ala, Gly 189 → Ala) (Bacillus subtilis, UniProt P68736, G369A/G406A); conditions: 147/189 mutant; 37° C., 25 mM Tris-HCl, pH 7.0, 2.5 mM calcium acetate
T2 construct: made in house; host or cells: B. subtilis SMS 108 carrying pSM 376 (B. subtilis SMS 262)
Procedure: as §1, §2, §3, §4, §5, §6

[3] = target: T3, B.subtilis neutral protease mutant 147 (Gly 147 → Ala) (Bacillus subtilis, UniProt P68736, G369A); conditions: 147 mutant; 37° C., 25 mM Tris-HCl, pH 7.0, 2.5 mM calcium acetate
T3 construct: made in house; host or cells: B. subtilis SMS 108 carrying pSM 374 (B. subtilis SMS 263)
Procedure: as §1, §2, §3, §4, §5, §6

[4] = target: T4, B.subtilis neutral protease mutant 189 (Gly 189 → Ala) (Bacillus subtilis, UniProt P68736, G406A); conditions: 189 mutant; 37° C., 25 mM Tris-HCl, pH 7.0, 2.5 mM calcium acetate
T4 construct: made in house; host or cells: B. subtilis SMS 108 carrying pSM 375 (printed pSM 75; B. subtilis SMS 261)
Procedure: as §1, §2, §3, §4, §5, §6

T2 sequence (P68736 222-521 G369A/G406A): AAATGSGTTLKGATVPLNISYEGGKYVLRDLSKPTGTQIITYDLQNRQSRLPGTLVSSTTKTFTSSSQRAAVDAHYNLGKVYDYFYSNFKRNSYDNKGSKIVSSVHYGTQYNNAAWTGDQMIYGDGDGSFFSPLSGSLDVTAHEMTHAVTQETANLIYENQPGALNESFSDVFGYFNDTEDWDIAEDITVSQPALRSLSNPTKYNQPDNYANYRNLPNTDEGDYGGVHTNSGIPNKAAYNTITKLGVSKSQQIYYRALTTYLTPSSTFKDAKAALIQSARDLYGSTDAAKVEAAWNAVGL
T3 sequence (P68736 222-521 G369A): as the sequence (P68736 222-521 G369A/G406A) above, with A185G counted along it
T4 sequence (P68736 222-521 G406A): as the sequence (P68736 222-521 G369A/G406A) above, with A148G counted along it

CC(C)C[C@H](NC(=O)[C@H](C)NC(=O)OCc1ccccc1)C(=O)N[C@@H](C)C(=O)O [Z--Ala--Leu--Ala, Z-Ala-Leu-Ala] (Cbz-Ala-Leu-Ala-OH)
Kcat [1]: 3005
Kcat [2]: 1329
Km [2]: 8.72 mM
Kcat [3]: ~3500
Kcat [4]: 2694
Km [4]: 1.53 mM

CC(C)C[C@H](NC(=O)CNC(=O)OCc1ccccc1)C(=O)N[C@@H](C)C(=O)O [Z--Gly--Leu--Ala, Z-Gly-Leu-Ala] (Cbz-Gly-Leu-Ala-OH)
Kcat [1]: 1150
Kcat [2]: 186.4
Km [2]: 4.39 mM
Kcat [3]: 105.8
Km [3]: 35.3 mM
Kcat [4]: 1847
Km [4]: 2.38 mM

CC(C)C[C@H](NC(=O)[C@H](Cc1ccccc1)NC(=O)OCc1ccccc1)C(=O)N[C@@H](C)C(=O)O [Z--Phe--Leu--Ala, Z-Phe-Leu-Ala] (Cbz-Phe-Leu-Ala-OH)
Kcat [1]: 1986
Kcat [2]: 1038
Km [2]: 0.95 mM
Kcat [3]: 1933
Km [3]: 9.36 mM
Kcat [4]: 2139
Km [4]: 2.53 mM

CC(C)C[C@H](NC(=O)[C@@H](NC(=O)OCc1ccccc1)C(C)C)C(=O)N[C@@H](C)C(=O)O [Z--Val--Leu--Ala, Z-Val-Leu-Ala] (Cbz-Val-Leu-Ala-OH)
Kcat [1]: 6.12
Kcat [2]: 7.61
Km [2]: 6.97 mM
Kcat [3]: 3.76
Km [3]: 24 mM
Kcat [4]: 13.12
Km [4]: 0.96 mM
